Here are results for three compounds from US20230172846A1, “ORAL DISSOLVABLE FILM AND METHOD OF MANUFACTURING AND USING THE SAME” (CURE PHARMACEUTICAL HOLDING CORP., priority 2019, published 2023).

Data set [1] can be described thus: Vitamin D3 Oral Thin Film 4 weeks stability study (% assay). The conditions noted are these: for % Assay of Vitamin D3: in oral thin film. It is filed as physicochemical. From the text:
Vitamin D3 is a highly sensitive Lipophilic active pharmaceutical ingredient (API). It was used as a model drug, formulated using above formulation and, Vitamin D3 Oral Thin Film tested for 4 weeks stability study.

Data set [2] in a line: CBD film stability study (% assay of CBD). It is filed as physicochemical.
The next data set relates to pancreatic cancer. The conditions noted are these: in vivo; cited from earlier work.

As to `C=C1CC[C@H](O)C/C1=C/C=C1\CCC[C@]2(C)[C@@H]([C@H](C)CCCC(C)C)CC[C@@H]12` [Vitamin D3], the “Protection and stability of Vitamin D3 in OTF” value in data set [1] (4 weeks stability study, high heat and humidity) was “significant protection”. The “% Assay of Vitamin D3” value in data set [1] (25 C./60% RH, T 1 Week) stood at 95%; in data set [1] (25 C./60% RH, T2 Weeks) it was 100%; in data set [1] (25 C./60% RH, T3 Weeks), 101%; in data set [1] (25 C./60% RH, T4 Weeks), 101%; in data set [1] (40 C./75% RH, T 1 Week), 98%; in data set [1] (40 C./75% RH, T2 Weeks), 92%. In addition, the “% Assay of Vitamin D3” value in data set [1] (40 C./75% RH, T3 Weeks) amounted to 91%; in data set [1] (40 C./75% RH, T4 Weeks), 93%; in data set [1] (T0 Week) it was 100%.

Regarding `C=C(C)[C@@H]1CCC(C)=C[C@H]1c1c(O)cc(CCCCC)cc1O` [CBD, Cannabidiol], the “% Assay of CBD” value in data set [2] (25 C./60% RH, T0 Week) is 108%; in data set [2] (25 C./60% RH, T1 Month), 109%; in data set [2] (25 C./60% RH, T2 Months), 113%; in data set [2] (25 C./60% RH, T 2 Weeks) it was 109%; in data set [2] (25 C./60% RH, T3 Months) it was 120%; in data set [2] (40 C./75% RH, T1 Month) it was 106%. For the same compound, the “% Assay of CBD” value in data set [2] (40 C./75% RH, T2 Months) is reported as 113%; in data set [2] (40 C./75% RH, T 2 Weeks), 108%; in data set [2] (40 C./75% RH, T3 Months), 118%; in data set [2] (40 C./75% RH, T9 Months), 96%; in data set [2] (in film formulation, 25 C./60% RH, T1 Month) it was 109%; in data set [2] (in film formulation, 25 C./60% RH, T2 Months) it was 113%. For the same compound, the “% Assay of CBD” value in data set [2] (in film formulation, 25 C./60% RH, T 2 Weeks) turned out to be 109%; in data set [2] (in film formulation, 25 C./60% RH, T3 Months), 120%; in data set [2] (in film formulation, 40 C./75% RH, T1 Month) it was 106%; in data set [2] (in film formulation, 40 C./75% RH, T2 Months), 113%; in data set [2] (in film formulation, 40 C./75% RH, T 2 Weeks), 108%; in data set [2] (in film formulation, 40 C./75% RH, T3 Months) it was 118%. The “% Assay of CBD” value in data set [2] (in film formulation, T0 Week) came to 108%. The “Stability and protection of the API in the film formulation” value in data set [2] (T=3M stability) is “better stability”.

As to `COc1cc(-c2cc(=O)c3c(O)cc(O)c(CC=C(C)C)c3o2)ccc1O` [FBL-03G], in the data set on pancreatic cancer, the “Survival rate of subjects suffering from pancreatic cancer” value is “increase survival rate”.
